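Cultured in 96-well plates, cells were exposed to test compound for 48 hours across five concentrations. GI50 marks 50% less growth.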 Activity calls are given as the source filed them. Cut-off read from the data, not from the text of the source: active = GI50 up to about 1.1 µM and inactive = higher.
Tests used:
Experiment in all cases: DTP human tumour cell line panel, 48 h
[1] = system: A549
[2] = system: BT-549
[3] = system: CAKI-1
[4] = system: EKVX
[5] = system: HCT-15
[6] = system: HL-60
[7] = system: HT-29
[8] = system: IGROV-1
[9] = system: MDA-MB-231
[10] = system: NCI-H226
[11] = system: NCI-H460
[12] = system: OVCAR-4
[13] = system: OVCAR-8
[14] = system: RXF 393
[15] = system: SK-MEL-5
[16] = system: SN12C
[17] = system: TK-10
[18] = system: UACC-62
[19] = system: SK-MEL-28
[20] = system: SR

Row | Structure (SMILES) | GI50 [1] | GI50 [2] | GI50 [3] | GI50 [4] | GI50 [5] | GI50 [6] | GI50 [7] | GI50 [8] | GI50 [9] | GI50 [10] | GI50 [11] | GI50 [12] | GI50 [13] | GI50 [14] | GI50 [15] | GI50 [16] | GI50 [17] | GI50 [18] | GI50 [19] | GI50 [20]
1 | O=C1C=C(Nc2cccnc2)c2ccccc2/C1=N/O | 39.6 µM (inactive) | 34.1 µM (inactive) | 40.4 µM (inactive) | 14.7 µM (inactive) | 15.2 µM | 0.789 µM (active) | 11.1 µM (inactive) | 13.6 µM (inactive) | 16.7 µM (inactive) | 58.7 µM (inactive) | 22.8 µM (inactive) | 19.6 µM (inactive) | 21.5 µM (inactive) | 33.7 µM (inactive) | 4.67 µM (inactive) | 34.4 µM (inactive) | > 100 µM (inactive) | 20.9 µM (inactive) | – | –
2 | CCOC(=O)Cc1nc2nn(Cc3ccccc3)cc2c(=O)[nH]1 | > 100 µM (inactive) | > 100 µM (inactive) | > 100 µM (inactive) | > 100 µM (inactive) | > 100 µM | > 100 µM (inactive) | > 100 µM (inactive) | > 100 µM (inactive) | > 100 µM (inactive) | > 100 µM (inactive) | > 100 µM (inactive) | > 100 µM (inactive) | > 100 µM (inactive) | > 100 µM (inactive) | > 100 µM (inactive) | > 100 µM (inactive) | > 100 µM (inactive) | > 100 µM (inactive) | > 100 µM (inactive) | –
3 | O=P1(Oc2ccccc2)N=P(c2ccccc2)(c2ccccc2)C=C(c2ccc(Cl)cc2)N1 (stereo not drawn) | 3.97 µM (inactive) | 16 µM (inactive) | 9.66 µM (inactive) | 7.89 µM (inactive) | 9.84 µM | 4.86 µM (inactive) | 4.29 µM (inactive) | 12.2 µM (inactive) | 16.5 µM (inactive) | – | 5.14 µM (inactive) | – | 14.4 µM (inactive) | – | 2.25 µM (inactive) | 16.6 µM (inactive) | 13.1 µM (inactive) | 13.9 µM (inactive) | – | 3.6 µM (inactive)
4 | CC(=O)Oc1cc(S(=O)(=O)Nc2n[nH]c(Nc3ccc(C)cc3)n2)c(S)cc1Cl | > 100 µM (inactive) | > 100 µM (inactive) | > 100 µM (inactive) | > 100 µM (inactive) | > 100 µM | 45.7 µM (inactive) | > 100 µM (inactive) | > 100 µM (inactive) | 51.1 µM (inactive) | – | > 100 µM (inactive) | > 100 µM (inactive) | > 100 µM (inactive) | – | > 100 µM (inactive) | > 100 µM (inactive) | > 100 µM (inactive) | > 100 µM (inactive) | > 100 µM (inactive) | 66.7 µM (inactive)
5 | COC(=O)c1ccccc1C1CN=NC12Cc1c(ccc(C)c1C)C2=O (stereo not drawn) | > 100 µM (inactive) | > 100 µM (inactive) | > 100 µM (inactive) | > 100 µM (inactive) | > 100 µM | > 100 µM (inactive) | > 100 µM (inactive) | > 100 µM (inactive) | 81.5 µM (inactive) | > 100 µM (inactive) | > 100 µM (inactive) | 42.3 µM (inactive) | 61.1 µM (inactive) | > 100 µM (inactive) | > 100 µM (inactive) | > 100 µM (inactive) | > 100 µM (inactive) | > 100 µM (inactive) | > 100 µM (inactive) | –
6 | Clc1ncnc2c1nc(C#Cc1ccccc1)n2C1CCCCO1 (stereo not drawn) | 1.99 µM (inactive) | 1.9 µM (inactive) | 1.97 µM (inactive) | 1.95 µM (inactive) | 1.14 µM | 2.59 µM (inactive) | 1.91 µM (inactive) | – | 3.95 µM (inactive) | 2.49 µM (inactive) | 3.14 µM (inactive) | 1.87 µM (inactive) | 3.3 µM (inactive) | 1.51 µM (inactive) | 2.21 µM (inactive) | 1.78 µM (inactive) | 2.63 µM (inactive) | 2.42 µM (inactive) | 2.21 µM (inactive) | –
7 | C=CC[C@@H]1C=C[C@@H](C(=O)OC)n2c(=O)n(-c3ccccc3)c(=O)n21 | – | > 100 µM (inactive) | > 100 µM (inactive) | > 100 µM (inactive) | > 100 µM | – | > 100 µM (inactive) | > 100 µM (inactive) | > 100 µM (inactive) | > 100 µM (inactive) | – | > 100 µM (inactive) | > 100 µM (inactive) | – | > 100 µM (inactive) | > 100 µM (inactive) | > 100 µM (inactive) | > 100 µM (inactive) | > 100 µM (inactive) | > 100 µM (inactive)
8 | COC(=O)c1ccccc1C1CN=NC12Cc1c(C)ccc(C)c1C2=O (stereo not drawn) | > 100 µM (inactive) | > 100 µM (inactive) | > 100 µM (inactive) | > 100 µM (inactive) | > 100 µM | 37.6 µM (inactive) | > 100 µM (inactive) | > 100 µM (inactive) | > 100 µM (inactive) | > 100 µM (inactive) | > 100 µM (inactive) | > 100 µM (inactive) | > 100 µM (inactive) | > 100 µM (inactive) | > 100 µM (inactive) | > 100 µM (inactive) | > 100 µM (inactive) | > 100 µM (inactive) | > 100 µM (inactive) | –

Source: ChEMBL document CHEMBL1201862, “PubChem BioAssay data set” (2004)
